Patent US7041844B2, “Irreversible non-steroidal antagonist compound and its use in the treatment of prostate cancer” (The University Of Tennessee Research Corporation, priority 1996, dated 2006)

Tests used:
[1] = target: T1, rat prostate AR (Rattus norvegicus, UniProt P15207); experiment: Saturation binding of 3H-MIB in the AR preparation (Scatchard analysis)
T1 sequence (P15207 1-902): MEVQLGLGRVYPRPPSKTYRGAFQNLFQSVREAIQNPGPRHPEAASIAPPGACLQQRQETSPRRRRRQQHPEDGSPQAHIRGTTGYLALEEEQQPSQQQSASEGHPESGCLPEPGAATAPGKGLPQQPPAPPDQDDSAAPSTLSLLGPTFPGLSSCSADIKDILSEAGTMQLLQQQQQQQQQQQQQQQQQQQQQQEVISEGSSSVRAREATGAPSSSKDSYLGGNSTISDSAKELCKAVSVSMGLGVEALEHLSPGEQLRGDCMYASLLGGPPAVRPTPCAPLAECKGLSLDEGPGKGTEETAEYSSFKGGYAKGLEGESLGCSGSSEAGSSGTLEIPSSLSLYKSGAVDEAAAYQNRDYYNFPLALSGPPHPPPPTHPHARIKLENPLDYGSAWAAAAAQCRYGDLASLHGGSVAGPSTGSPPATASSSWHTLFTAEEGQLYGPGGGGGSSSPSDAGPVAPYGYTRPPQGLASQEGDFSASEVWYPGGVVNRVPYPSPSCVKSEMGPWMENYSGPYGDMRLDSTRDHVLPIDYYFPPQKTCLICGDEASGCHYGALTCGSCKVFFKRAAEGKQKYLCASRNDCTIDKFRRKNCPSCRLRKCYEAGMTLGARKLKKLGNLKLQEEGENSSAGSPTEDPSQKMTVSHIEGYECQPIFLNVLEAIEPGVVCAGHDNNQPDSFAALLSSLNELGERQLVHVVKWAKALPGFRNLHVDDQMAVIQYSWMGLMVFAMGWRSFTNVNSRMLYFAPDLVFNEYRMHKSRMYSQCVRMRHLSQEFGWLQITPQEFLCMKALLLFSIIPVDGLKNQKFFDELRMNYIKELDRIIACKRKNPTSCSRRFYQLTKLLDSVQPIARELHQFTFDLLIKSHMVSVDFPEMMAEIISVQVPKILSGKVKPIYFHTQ

[2] = target: T2, rat ventral prostate AR (Rattus norvegicus, UniProt P15207); experiment: Competitive displacement of 3H-MIB from AR binding sites; settings: comparison of Ki values
T2 construct: from tissue; host or cells: ventral prostate cytosol of castrated male Sprague-Dawley rats
T2 sequence (P15207 1-902): T1 sequence (P15207 1-902)
Description: Receptor binding studies for the compounds shown in Table 3 were conducted as follows.
1. AR were isolated from rat ventral prostate tissue by differential centrifugation.
2. Samples of the following composition listed in Table 4 were incubated at 4° C. for 18 hours:
Percent Specific Binding=(B/B0)×100
Data were computer fitted to the equation: […]
Equilibrium dissociation constant of each isomer (Ki) was determined using the equation.
AR isolation was performed as follows.

Row | Structure (SMILES) | Kd [1] [nM] | AR binding affinity (result in words) [2]
1 | C[C@@H]1CC2=CC(=O)CC[C@@H]2[C@H]2CC[C@@]3(C)[C@@H](CC[C@]3(C)O)[C@@H]21 [MIB, Mibolerone] | 0.182 | 
2 | O=C(CCl)NS[N+](=O)[O-] [S-NT-CAA, S-nitro-thio chloroacetamide] |  | close to that of S-Casodex
3 | O=[N+]([O-])SN=C=S [S-NT-NCS, S-nitro-thio-isothiocyanate] |  | close to that of S-Casodex
